Experimental data published in US20230381237A1, “CHIMERIC ANTIGEN RECEPTOR (CAR) T-CELL ADJUVANT THERAPIES” (priority 2022, published 2023).
Entries after “also recorded” stand apart in the source; their conditions may differ.

Assays:
[1] = test system: PBMCs activated through TLR-3; experiment: TNFα production in Poly r(I:C)-activated PBMCs (sandwich ELISA); details: 0.3 nM to 750 nM
[2] = Example 2: mouse model of CAR T-cell therapy induced CRS; details: IP, BID for 7 days
[3] = Body weight and tolerability in African green monkey PK study; format: in vivo, African green monkeys
Description: (§1) Individual Animal Metrics—Nine African green monkeys (approximately 16 years old, wild-caught) were used in this PK study. Per requirements of the CDC, all animals were quarantined at a CDC facility for 30 days followed by a 90-day quarantine/acclimation period at TNPRC prior to study initiation. Animals were dosed three times daily (TID) by oral gavage in three separate rounds of the study (ascending dose concentrations). Individual animal weights were tracked throughout the entirety of the study. On average, weights decreased 5.5% across all cohorts, with no individual animal losing more than 8.7% of its initial body weight over the course of the study. No difference in mean weight change is observed between male and female monkeys. […] Ultimately, the animals handled the schedule well, all remaining in good health with a weight loss of no more than what was expected by the veterinary staff with the schedule intensity.

[4] = Example 4: treatment with predetermined delay period; format: in vivo, human; details: mantle cell lymphoma; start three days after CAR T-cells, eleven days
Description: Both groups will receive infusion of CAR T-cells. […] Cytokines will be monitored daily for both groups.

[5] = Example 5: treatment with monitored delay period; format: in vivo, human; details: acute myeloid leukemia; start upon cytokine increase, ten days
Description: Both groups will receive infusion of CAR T-cells. Cytokines will be monitored daily for both groups. […] Treatment with CTO1681 will continue daily for ten days.

Raji-luc tumor cells = experiment: CAR T-cell efficacy in NSG tumor bearing mice; format: in vivo
Description: Human T-cells expressing CD19-CD28-CD3Z CAR construct was used in this experiment.
6-7 week old NSG™ (NOD SCID gamma) mice were engrafted with 1×10^6 luciferase (luc) expressing Raji tumor cells (herein referred to as “Raji-luc” tumor cells) each on Day 1 to allow for tumor growth over a 7-day period prior to the commencement of the treatment. CAR T-cell infusion was performed intravenously via lateral tail vein on (5×10^6 CD19 CAR T-cells generated from healthy donors). NSG mice are severely immunodeficient, which facilitates ready tumor engraftment and subsequent clearance due to CAR T-cells can be measured.
Tumor growth after engraftment and subsequent clearance were monitored once weekly (starting on Day 7) using IVIS imaging to detect luciferase signal in living mice. […] CTO1681 doses were selected based on the pharmacokinetic profile of the drug in mice. Control groups included mice receiving Raji-luc tumor cells without CAR T-cell treatment, mice receiving Raji-luc tumor cells and a CAR T-cell infusion, and mice receiving Raji-luc tumor cells with vehicle treatments. Mice were monitored for body temperature and health evaluations (weight, movement, posture, fur condition, etc.) throughout the entire study.

CD19+Raji tumor cells = experiment: CD19 CAR T-cell killing of Raji target cells (flow cytometry, 7-AAD); format: cell-based, human; details: in vitro; Effector:Target 10:1, 5:1, 1:1; all concentrations; monosodium salt
[6] = test system: CD19 CAR T-cells co-cultured with CD19+Raji lymphoma target cells; experiment: CD19 CAR T-cell / Raji co-culture, pro-inflammatory cytokine levels; format: cell-based, human
[7] = Pharmacokinetics in African Green Monkeys, TID oral gavage; format: in vivo
Description: as §1
Individual animal profiles were evaluated following each dose on a single day of dosing. Single day TID doses were administered using the same animals following a minimum of 7 days wash out between increasing dose level rounds, where Round 1 was TID 0.008 mg/kg/day (0.00267 mg/kg/dose), Round 2 was TID 0.04 mg/kg/day (0.0133 mg/kg/dose), and Round 3 was TID 0.2 mg/kg/day (0.0667 mg/kg/dose). Wash out (negative) plasma levels of CTO1681 between dose rounds were confirmed. […] Samples were collected at the following target timepoints relative to the first TID dose of the day: 0.25, 0.5, 1, 2, 4, and 8 hours (prior to second daily dose), 8.25, 8.5, 9, 10, 12, and 16 hours (prior to third daily dose), 16.25, 16.5, 17, 18, 20, 24, 28 and 40 hours after TID test item administration by oral gavage dosing, with the three daily doses administered at 0, 8 and 16 h in 9 animals, staggered for n=3 collection after administration of each daily dose. […]

influenza (H5N1) = details: in vivo; cited from earlier work
Food effect = format: in vivo; details: oral tablets
[8] = Example 3: human treatment with no delay period; format: in vivo; details: B-cell lymphoma, daily for 7-15 days
Description: Both groups will receive infusion of CAR T-cells. […] Clinical signs of CRS and cytokines will be monitored daily for both groups.

[9] = Phase 1 multiple ascending, repeat-dosing study in healthy volunteers
[10] = BID dose PK study in NSG mice (CAS-2201); format: in vivo, murine (NSG)
[11] = test system: circulating cytokines (TNFα); experiment: Serum cytokine measurements after CTO1681 treatment in African Green Monkeys; format: in vivo; details: highest dose of CTO1681 compared to the other two cohorts
Description: Longitudinal serum samples were taken through the course of the observation period. At the end of all three cohorts serum samples were utilized to determine circulating concentrations of 12 different cytokines. Representative data is pictured below for TNFα, a key central cytokine in CRS (FIG. 6). […] Overall there appears to be a dose-dependent trend to cytokine reduction.

influenza (H1N1) = experiment: In vivo lethal influenza H1N1 studies, cytokine levels; design: species or system mice
[12] = Single dose PK study in BALB/C mice; format: in vivo, murine (BALB/C)
TNF-α = details: patients with diabetes; doses within dose equivalencies of CTO1681 MAD study; cited from earlier work
[13] = 10:1 ratio of Effectors to Target cells, CTO1681 0.36-225 nM, 24 hours
[14] = CytoAgents in vivo influenza (H1N1) studies

Which results are given for CC#CCC(C)[C@H](O)/C=C/[C@@H]1[C@H]2c3cccc(CCCC(=O)O)c3O[C@H]2C[C@H]1O (some centres unmarked) [Beraprost, reference compound]?
EC50 ([1]; PBMC, Replicate 1): 17.1 nM; EC50 ([1]; PBMC, Replicate 2): 8.64 nM; EC50 ([1]; PBMC, Replicate 3): 17.1 nM

With CC#CC[C@H](C)[C@H](O)/C=C/[C@@H]1[C@H]2c3cccc(CCCC(=O)[O-])c3O[C@H]2C[C@H]1O.[Na+] [CTO1681, (+)-[1R, 2R, 3aS, 8bS]-2,3,3a,8b-tetrahydro-2-hydroxy-1-[(E)-(3S,4S)-3-hydroxy-4-methyl-1-octen-6-ynyl)-1Hcyclopenta[b]benzofuran-5-butanoic acid, monosodium salt] as the compound, how does the Comparison with dexamethasone [2] read?
The Comparison with dexamethasone was “superior to dexamethasone”.

What about the “Survival benefits over dexamethasone” value [2] of the same compound?
The value was “greater survival benefits”.

And the “Tolerability / toxicities or negative health effects” value ([3]; TID oral administration, 0.008-0.2 mg/kg/day, monosodium salt)?
The value was “overall tolerable; also recorded: no toxicities or negative health effects”.

And the “Average weight decrease across all cohorts” value ([3]; entire study)?
Its value is 5.5%.

And the “Largest individual loss of initial body weight” value ([3]; entire study)?
The value was at most 8.7%.

What about the “CRS symptoms vs control group” value [4] of the same compound?
The value was “reduced CRS symptoms”.

What about the “Undesired cytokine production vs control group” value [4] of the same compound?
Its value is “lower undesired cytokine production”.

What about the “CRS symptoms vs control group” value [5] of the same compound?
Its value is “reduced CRS symptoms”.

And the “Undesired cytokine production vs control group” value [5]?
The value was “lower undesired cytokine production”.

And the “Effect on CD19 CAR T-cell activity (reduction of lymphoma tumor burden)” value (Raji-luc tumor cells; 0.3, 0.2 or 0.15 mg/kg/d BID for 14 days, Day 15, monosodium salt)?
The value was “does not interfere; also recorded: did not affect”.

What about the “Clinical morbidities, including weight loss or limb movement” value (Raji-luc tumor cells; NSG mice, with CAR T-cell therapy) of the same compound?
Its value is “did not cause any increase”.

And the “Effect on tumor/target cell killing of CD19-directed CAR T-cells” value (CD19+Raji tumor cells)?
The value was “absence of an effect; also recorded: did not impact or interfere”.

What about the “Maximum reduction of IFN-γ” value [6, 13] of the same compound?
The value was about 26%.

What about the “Maximum reduction of TL-6” value [6, 13] of the same compound?
The value was about 23%.

And the “Maximum reduction of TNF-α” value [6, 13]?
Its value is “approximately 50%”.

What about the “Levels of IL-6” value ([6]; CAR T-cells and Raji cells at a 10:1 ratio (FIG. 1A)) of the same compound?
Its value is “dose-dependently lowers”.

And the “Levels of TNF-α” value ([6]; CAR T-cells and Raji cells at a 10:1 ratio (FIG. 1B))?
Its value is “dose-dependently lowers”.

And the “Levels of IFN-γ” value ([6]; CAR T-cells and Raji cells at a 10:1 ratio (FIG. 1C))?
Its value is “dose-dependently lowers”.

What about the Tmax ([7]; round 1, 0.008 mg/kg/day TID oral) of the same compound?
The Tmax was 1.5 h.

And the Tmax ([7]; round 2, 0.04 mg/kg/day TID oral)?
The Tmax was 2.0 h.

And the Tmax ([7]; round 3, 0.2 mg/kg/day TID oral)?
Its Tmax is 2.1 h.

And the IL-2 level (influenza (H5N1))?
The IL-2 level was “reduced”.

And the IL-6 level (influenza (H5N1))?
Its IL-6 level is “reduced”.

What about the IL-8 level (influenza (H5N1)) of the same compound?
The IL-8 level was “reduced”.

And the IL-10 level (influenza (H5N1))?
Its IL-10 level is “reduced”.

And the EC50 ([1]; Replicate 1)?
The EC50 was 5.7 nM.

What about the EC50 ([1]; Replicate 2) of the same compound?
Its EC50 is 4.14 nM.

And the EC50 ([1]; Replicate 3)?
The EC50 was 1.95 nM.

What about the Food effect (Food effect) of the same compound?
Its Food effect is “positive food effect”.

And the “CRS symptoms vs control group” value [8]?
Its value is “reduced CRS symptoms”.

And the “Undesired cytokine production vs control group” value [8]?
Its value is “lower undesired cytokine production”.

And the “Cytokine levels (panel of 27 cytokines)” value [9]?
The value was “no clinically significant decreases”.

And the “SAEs, TEAEs of special interest, TEAEs leading to study discontinuation or dose reduction” value ([9]; 15 to 60 μg/day, 7 days)?
The value was “No SAEs”.

And the “Treatment-emergent AEs, mild” value ([9]; 15 to 60 μg/day, 7 days)?
Its value is 62 AEs.

And the “Treatment-emergent AEs, moderate” value ([9]; 15 to 60 μg/day, 7 days)?
Its value is 4 AEs.

And the Elimination half-life ([10]; calculated using first daily dose, range of 6-12 h (Rsq=0.40))?
The Elimination half-life was 1.8 h.

And the “T1/2 of BID exposure” value ([10]; two times a day (BID) dose)?
Its value is “approximately 5 hours”.

And the “Cytokine levels in serum (TNFα representative)” value [11]?
Its value is “remarkable and consistent reduction”.

What about the IL-2 level (influenza (H1N1); [14]) of the same compound?
The IL-2 level was “reduced”.

What about the IL-6 level (influenza (H1N1); [14]) of the same compound?
Its IL-6 level is “reduced”.

And the IL-10 level (influenza (H1N1); [14])?
Its IL-10 level is “reduced”.

And the IFN-α concentrations (influenza (H1N1); lethal H1N1 influenza infections)?
Its IFN-α concentrations is “no significant repression”.

And the T1/2 [12]?
The T1/2 was 1 to 2 h.

For CC#CCC(C)C(O)C=CC1C(O)CC2Oc3c(CCCC(=O)[O-])cccc3C21.[Na+] (centres unmarked) [beraprost sodium, 2,3,3a,8b-tetrahydro-2-hydroxyl-1-(3-hydroxyl-4-methyl-1-octen-6-ynyl)-1H-cyclopenta[b]benzofuran-5-butanoic acid, sodium salt], which TNF-α (TNF-α) is on record?
The TNF-α was “significant reductions”.
